According to US9458113B2 (Boehringer Ingelheim International GmbH, priority 2014, dated 2016):

Molecular target: Human neutrophil elastase (Homo sapiens (Human), UniProt P08246)
Assay: Human Neutrophil Elastase Assay
Format: biochemical
Details: substrate MeOSuc-Ala-Ala-Pro-Val-AMC 250 μM, pH 7.5

Sequence of Human neutrophil elastase (P08246 30-247): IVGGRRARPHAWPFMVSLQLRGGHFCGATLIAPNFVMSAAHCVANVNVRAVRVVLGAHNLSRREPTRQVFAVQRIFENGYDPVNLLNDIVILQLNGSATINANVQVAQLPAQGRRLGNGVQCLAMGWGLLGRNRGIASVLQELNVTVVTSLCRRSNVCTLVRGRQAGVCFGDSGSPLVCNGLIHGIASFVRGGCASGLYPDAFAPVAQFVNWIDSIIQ

| Structure (SMILES) | IC50 |
| --- | --- |
| CN1C(=O)N(c2cccc(C(F)(F)F)c2)C2=C(C(=O)CC2)C1c1ccc(C#N)cc1CNC(C)(C)C (stereo not shown) [Example 9.2] | 3.3 nM |
| CN1C(=O)N(c2cccc(C(F)(F)F)c2)C2=C(C(=O)CC2)C1c1ccc(C#N)cc1C(=O)NCC#N (stereo not shown) [Example 1.5] | 3.1 nM |
| CN1C(=O)N(c2cccc(C(F)(F)F)c2)C2=C(C(=O)CC2)C1c1ccc(C#N)cc1C(=O)N1CCN(C2CC2)CC1 (stereo not shown) [Example 1.33] | 10.5 nM |
| CN1C(=O)N(c2cccc(C(F)(F)F)c2)C2=C(C(=O)CC2)C1c1ccc(C#N)cc1C(=O)NCCCO (stereo not shown) [Example 1.15] | 5 nM |
| CN(C)C(=O)c1cc(C#N)ccc1[C@@H]1C2=C(CCC2=O)N(c2cccc(C(F)(F)F)c2)C(=O)N1C [Example 2.2] | 1.1 nM |
| CN1C(=O)N(c2cccc(C(F)(F)F)c2)C2=C(C(=O)CCC2)C1c1ccc(C#N)cc1-c1ccco1 (stereo not shown) [Example 15.5] | 5.7 nM |
| CN1C(=O)N(c2cccc(C(F)(F)F)c2)C2=C(C(=O)CC2)C1c1ccc(C#N)cc1C1=CCNCC1 (stereo not shown) [Example 14.2] | < 1 nM |
| CN1C(=O)N(c2ccnc(C(F)(F)F)c2)C2=C(C(=O)CC2)C1c1ccc(C#N)cc1-c1ccn(C)c(=O)c1 (stereo not shown) [Example 17.3] | 10.6 nM |
| CC(=O)N(C)[C@H]1CCN(C(=O)c2cc(C#N)ccc2C2C3=C(CCC3=O)N(c3cccc(C(F)(F)F)c3)C(=O)N2C)C1 (stereo partly shown) [Example 1.77] | 2.3 nM |
| CN1C(=O)N(c2cccc(C(F)(F)F)c2)C2=C(C(=O)CC2)C1c1ccc(C#N)cc1C(=O)NCCS(C)(=O)=O (stereo not shown) [Example 1.26] | 4.6 nM |
| CN1C(=O)N(c2cccc(C(F)(F)F)c2)C2=C(C(=O)CC2)C1c1ccc(C#N)cc1C(=O)NCC(=O)N1CCOCC1 (stereo not shown) [Example 1.80] | 6 nM |
| CN1C(=O)N(c2ccnc(C(F)(F)F)c2)C2=C(C(=O)CC2)[C@H]1c1ccc(C#N)cc1C(N)=O [Example 8, 5-Cyano-2-[(R)-3-methyl-1-(2-trifluoromethyl-pyridin-4-yl)-2,5-dioxo-2,3,4,5,6,7-hexahydro-1H-cyclopentapyrimidin-4-yl]-benzamide] | 41 nM |
| CN1C(=O)N(c2cccc(C(F)(F)F)c2)C2=C(C(=O)CC2)C1c1ccc(C#N)cc1C(=O)NCc1ccc(C#N)o1 (stereo not shown) [Example 1.64] | 6.9 nM |
| CN1C(=O)N(c2cccc(C(F)(F)F)c2)C2=C(C(=O)CC2)C1c1ccc(C#N)cc1-c1ccn(C)c(=O)c1 (stereo not shown) [Example 11.7] | 1.2 nM |
| CN1C(=O)N(c2cccc(C(F)(F)F)c2)C2=C(C(=O)CCC2)C1c1ccc(C#N)cc1C(=O)N1CCNCC1 (stereo not shown) [Example 6.3] | 3.5 nM |
| CN1C(=O)N(c2cccc(C(F)(F)F)c2)C2=C(C(=O)CC2)C1c1ccc(C#N)cc1C(=O)NC(C)(C)C#N (stereo not shown) [Example 5, 5-Cyano-N-(cyano-dimethyl-methyl)-2-[3-methyl-2,5-dioxo-1-(3-trifluoromethyl-phenyl)-2,3,4,5,6,7-hexahydro-1H-cyclopentapyrimidin-4-yl]-benzamide] | 3.4 nM |
| CN1C(=O)N(c2cccc(C(F)(F)F)c2)C2=C(C(=O)CCC2)C1c1ccc(C#N)cc1C1=CCN(C(=O)OC(C)(C)C)C1 (stereo not shown) [Example 15.6] | 10.7 nM |
| CN1C(=O)N(c2cccc(C(F)(F)F)c2)C2=C(C(=O)CCC2)C1c1ccc(C#N)cc1C(N)=O (single isomer, unassigned) [Example 7a, 5-Cyano-2-[3-methyl-2,5-dioxo-1-(3-trifluoromethyl-phenyl)-1,2,3,4,5,6,7,8-octahydro-quinazolin-4-yl]-benzamide] | < 1 nM |
| CN1C(=O)N(c2cccc(C(F)(F)F)c2)C2=C(C(=O)CC2)C1c1ccc(C#N)cc1C1=CCNC1 (stereo not shown) [Example 14, 3-(2,5-Dihydro-1H-pyrrol-3-yl)-4-[3-methyl-2,5-dioxo-1-(3-trifluoromethyl-phenyl)-2,3,4,5,6,7-hexahydro-1H-cyclopentapyrimidin-4-yl]-benzonitrile] | < 1 nM |
| CN1C(=O)N(c2cccc(C(F)(F)F)c2)C2=C(C(=O)CC2)C1c1ccc(C#N)cc1C(=O)NCc1cccnc1 (stereo not shown) [Example 1.46] | 3.9 nM |
| CN(Cc1ccno1)C(=O)c1cc(C#N)ccc1C1C2=C(CCC2=O)N(c2cccc(C(F)(F)F)c2)C(=O)N1C (stereo not shown) [Example 1.60] | < 1 nM |
| CN1C(=O)N(c2cccc(C(F)(F)F)c2)C2=C(C(=O)CC2)C1c1ccc(C#N)cc1C(=O)NCC(C)(C)O (stereo not shown) [Example 1.19] | 9.5 nM |
| CN1C(=O)N(c2cccc(C(F)(F)F)c2)C2=C(C(=O)CC2)[C@H]1c1ccc(C#N)cc1C(=O)N1CCOCC1 [Example 2.3] | 2.9 nM |
| CN1C(=O)N(c2cccc(C(F)(F)F)c2)C2=C(C(=O)CC2)C1c1ccc(C#N)cc1-c1nnco1 (stereo not shown) [Example 13, 4-[3-Methyl-2,5-dioxo-1-(3-trifluoromethyl-phenyl)-2,3,4,5,6,7-hexahydro-1H-cyclopentapyrimidin-4-yl]-3-[1,3,4]oxadiazol-2-yl-benzonitrile] | 2.1 nM |
| CN1C(=O)N(c2cccc(C(F)(F)F)c2)C2=C(C(=O)CC2)C1c1ccc(C#N)cc1C(=O)NCc1ccnn1C (stereo not shown) [Example 1.56] | 5.4 nM |
| CN1C(=O)N(c2cccc(C(F)(F)F)c2)C2=C(C(=O)CCC2)C1c1ccc(C#N)cc1-c1cnn(C)c1 (stereo not shown) [Example 15.2] | 2.4 nM |
| CN1C(=O)N(c2cccc(C(F)(F)F)c2)C2=C(C(=O)CC2)C1c1ccc(C#N)cc1C(=O)NCc1nccn1C (stereo not shown) [Example 1.58] | 2.4 nM |
| CN1C(=O)N(c2cccc(C(F)(F)F)c2)C2=C(C(=O)CC2)C1c1ccc(C#N)cc1-c1ccc2c(cnn2C)c1 (stereo not shown) [Example 11.12] | 7.9 nM |

| Structure (SMILES) | IC50 |
| --- | --- |
| CN1C(=O)N(c2cccc(C(F)(F)F)c2)C2=C(C(=O)CCC2)C1c1ccc(C#N)cc1-c1ccn(C)n1 (stereo not shown) [Example 15.1] | 2.8 nM |
| COCCCN(C)C(=O)c1cc(C#N)ccc1C1C2=C(CCC2=O)N(c2cccc(C(F)(F)F)c2)C(=O)N1C (stereo not shown) [Example 1.24] | 3.3 nM |
| CN1C(=O)N(c2cccc(C(F)(F)F)c2)C2=C(C(=O)CC2)C1c1ccc(C#N)cc1C(=O)NCc1cnn(C)c1 (stereo not shown) [Example 1.55] | 4.8 nM |
| CN1C(=O)N(c2cccc(C(F)(F)F)c2)C2=C(C(=O)CC2)C1c1ccc(C#N)cc1C1=CCCO1 (stereo not shown) [Example 11.5] | < 1 nM |
| CN1C(=O)N(c2cccc(C(F)(F)F)c2)C2=C(C(=O)CCC2)C1c1ccc(C#N)cc1C1=CCNCC1 (stereo not shown) [Example 16, 4-[3-Methyl-2,5-dioxo-1-(3-trifluoromethyl-phenyl)-1,2,3,4,5,6,7,8-octahydro-quinazolin-4-yl]-3-(1,2,3,6-tetrahydro-pyridin-4-yl)-benzonitrile] | < 1 nM |
| CN1C(=O)N(c2cccc(C(F)(F)F)c2)C2=C(C(=O)CC2)C1c1ccc(C#N)cc1C(=O)N[C@H]1CCNC1 (stereo partly shown) [Example 4.6] | 6.9 nM |
| CN1C(=O)N(c2cccc(C(F)(F)F)c2)C2=C(C(=O)CC2)C1c1ccc(C#N)cc1C(=O)NCc1cn(C)cn1 (stereo not shown) [Example 1.54] | 6.9 nM |
| CN(Cc1ccnn1C)C(=O)c1cc(C#N)ccc1C1C2=C(CCC2=O)N(c2cccc(C(F)(F)F)c2)C(=O)N1C (stereo not shown) [Example 1.71] | < 1 nM |
| CN1C(=O)N(c2cccc(C(F)(F)F)c2)C2=C(C(=O)CC2)C1c1ccc(C#N)cc1C(=O)N1C[C@H]2C[C@@H]1C[N+]2(C)C (stereo partly shown) [Example 3.5] | 7 nM |
| CC(=O)N[C@H]1CCN(C(=O)c2cc(C#N)ccc2C2C3=C(CCC3=O)N(c3cccc(C(F)(F)F)c3)C(=O)N2C)C1 (stereo partly shown) [Example 1.83] | 2.2 nM |
| COCCNC(=O)c1cc(C#N)ccc1C1C2=C(CCC2=O)N(c2cccc(C(F)(F)F)c2)C(=O)N1C (stereo not shown) [Example 1.14] | 6.5 nM |
| CN1C(=O)N(c2ccnc(C(F)(F)F)c2)C2=C(C(=O)CC2)C1c1ccc(C#N)cc1C(=O)N1CCOCC1 (stereo not shown) [Example 8.5] | 71.6 nM |
| CN1C(=O)N(c2cccc(C(F)(F)F)c2)C2=C(C(=O)CCC2)C1c1ccc(C#N)cc1C1=COCC1 (stereo not shown) [Example 15.10] | 1.5 nM |
| CN1C(=O)N(c2cccc(C(F)(F)F)c2)C2=C(C(=O)CC2)C1c1ccc(C#N)cc1C(=O)N1CCN2CCOCC2C1 (stereo not shown) [Example 1.35] | 16.2 nM |
| CN1C(=O)N(c2cccc(C(F)(F)F)c2)C2=C(C(=O)CC2)C1c1ccc(C#N)cc1-c1cccnc1 (stereo not shown) [Example 11.10] | 3.1 nM |
| CN1C(=O)N(c2cccc(C(F)(F)F)c2)C2=C(C(=O)CC2)C1c1ccc(C#N)cc1C(=O)NCCO (stereo not shown) [Example 1.8] | 5.7 nM |
| CN1C(=O)N(c2cccc(C(F)(F)F)c2)C2=C(C(=O)CC2)C1c1ccc(C#N)cc1C(=O)NC1CCNCC1 (stereo not shown) [Example 4.2] | 7.1 nM |
| CN1C(=O)N(c2cccc(C(F)(F)F)c2)C2=C(C(=O)CC2)C1c1ccc(C#N)cc1C(=O)NCc1nncn1C (stereo not shown) [Example 1.61] | 6 nM |
| CN1C(=O)N(c2cccc(C(F)(F)F)c2)C2=C(C(=O)CC2)C1c1ccc(C#N)cc1CN1CCOCC1 (stereo not shown) [Example 9, 4-[3-Methyl-2,5-dioxo-1-(3-trifluoromethyl-phenyl)-2,3,4,5,6,7-hexahydro-1H-cyclopentapyrimidin-4-yl]-3-morpholin-4-ylmethyl-benzonitrile] | 1.4 nM |
| CN1C(=O)N(c2cccc(C(F)(F)F)c2)C2=C(C(=O)CC2)C1c1ccc(C#N)cc1-c1ccncc1 (stereo not shown) [Example 11.9] | 1 nM |
| CN(Cc1ccn(C)n1)C(=O)c1cc(C#N)ccc1C1C2=C(CCC2=O)N(c2cccc(C(F)(F)F)c2)C(=O)N1C (stereo not shown) [Example 1.73] | 1.3 nM |
| CNC(=O)c1cc(C#N)ccc1C1C2=C(CCC2=O)N(c2ccnc(C(F)(F)F)c2)C(=O)N1C (stereo not shown) [Example 8.1] | 25 nM |
| CN1C(=O)N(c2cccc(C(F)(F)F)c2)C2=C(C(=O)CC2)C1c1ccc(C#N)cc1C(=O)N1CCC(O)CC1 (stereo not shown) [Example 1.22] | 10.3 nM |
| CN1CCC(NC(=O)c2cc(C#N)ccc2C2C3=C(CCC3=O)N(c3cccc(C(F)(F)F)c3)C(=O)N2C)C1 (stereo not shown) [Example 1.30] | 7.4 nM |
| CN1C(=O)N(c2ccnc(C(F)(F)F)c2)C2=C(C(=O)CC2)C1c1ccc(C#N)cc1C(=O)N1CCCCC1 (stereo not shown) [Example 8.4] | 181 nM |
| CN1C(=O)N(c2ccnc(C(F)(F)F)c2)C2=C(C(=O)CC2)C1c1ccc(C#N)cc1-c1ccoc1 (stereo not shown) [Example 17, 3-Furan-3-yl-4-[3-methyl-2,5-dioxo-1-(2-trifluoromethyl-pyridin-4-yl)-2,3,4,5,6,7-hexahydro-1H-cyclopentapyrimidin-4-yl]-benzonitrile] | 11.2 nM |
| CN1C(=O)N(c2cccc(C(F)(F)F)c2)C2=C(C(=O)CC2)C1c1ccc(C#N)cc1C(=O)N1CCCC1 (stereo not shown) [Example 1.10] | 3.4 nM |
